“Also recorded” adds a separate entry of the source. Like-named read-outs stand apart in the source and are kept apart here.
Legend:
[1] = test system: HMCL (NCIH929, OCI-MY1 and U266); experiment: Annexin-V/Propidium Iodide FACS apoptosis; type: cell-based, human; details: Annexin-V/PI; 3 HMCL
Experimental: (§1) The viability and proliferation of CYT387 treated HMCL and untreated/vehicle controls were determined using various methods as described previously. Proliferation was measured first using Celltiter 96 AQeous one solution cell proliferation assay MTS reagent (Promega) on a panel of 8 HMCL. Cells were cultured at 2.0×10^5 cell/ml in 100 μl fresh media in 96 well plates for 24, 48 and 72 hours with CYT387 (0.1-5 μM). 20 μl of MTS reagent was added for the final 4 hours of treatment and the plates were read at 490 nm using a Fluostar Optima plate reader (BMG Labtech). The viable cell numbers of a panel of 5 HMCL that were treated with CYT387 with and without IL-6 co-treatment was also measured by trypan blue staining and haemocytometer count. The HMCL NCI-H929, OCI-MY1 and U266 were then selected for further analysis. Apoptosis of CYT387 treated cells was assessed by FACS with Annexin-V and propidium iodide (PI) staining. HMCLs were treated for 24 or 72 hours with 1 or 5 μM CYT387 then harvested and washed in Annexin Buffer (0.01 HEPES, 0.14 M NaCl, 2.5 mM CaCl2, pH 7.4) and stained with Annexin-V FITC (Biosource) made up in Annexin Buffer for 30 minutes at room temperature. Unbound antibody was then washed off with Atmexin Buffer and cells were resuspended in Annexin Buffer with 62.5 ng/mi PI (Sigma-Aldrich) and analyzed by FACS.

p-AKT (pS473) = experiment: IL-6 and IGF-1 induced p-AKT, intracellular FACS, OCI-MY1; type: cell-based, human; details: 2 μM CYT387 cotreatment, 15 minutes
Experimental: (§2) Activation of the JAK/STAT, PI3K/AKT and Ras/MAPK pathways was investigated using intracellular flow cytometry to measure the phosphorylation of STAT3 at tyrosine 705 (p-STAT3), AKT at serine 473 (p-AKT) and ERK1/2 at threonine 202 and tyrosine 204 (p-ERK). HMCL were stimulated alone with 10 ng/ml IL-6±[…] IGF-1 or stimulated in CC with HS5 stromal cells or primary BMSC with or without CYT387 treatment. For CC HS5 and primary BMSC were seeded into a 24 well plate at 2×10^5 cells/ml and allowed to establish for 4 hours, after which HMCL prestained with CD38 or CD138 FITC (BD) were added. MM cells were stimulated alone (10 ng/ml IL-6 or 5 ng/ml IL-6 and 100 ng/ml IGF-1), or in CC (direct CC with stroma or transwell (TW) CC with stroma) with or without either 60 minutes of CYT387 pretreatment or 15 minutes CYT387 co-treatment. After stimulation±treatment, MM cells were harvested and fixed with 2% paraformaldehyde for 10-30 minutes, washed then permeabilised with methanol overnight. Methanol was washed off and the cells were resuspended in p-STAT3 PE (BD), p-AKT PE (BD) or p-ERK (BD) and stained for 45-60 minutes at room temperature. Unbound antibody was washed off and the cells resuspended in 2% FBS PBS and acquired by FACS.

p-STAT3 (pY705) [2] = experiment: STAT3 phosphorylation in HMCL in coculture with bone marrow stromal cells (HS5 or primary BMSC); type: cell-based, human; details: 15 minutes coculture with BMSC (with or without contact), co-treatment with 2 μM CYT387
Experimental: as §2

NCI-H929 [3] = experiment: Viable cell number by haemocytometer; type: cell-based; details: Homo sapiens; NCI-H929, 1 μM, after 72 hours; read-out: inhibition of cell proliferation
Experimental: as §1

U266 = experiment: Viable cell number by haemocytometer; type: cell-based; details: Homo sapiens, U-266; U266, 1 μM, after 72 hours; read-out: inhibition of cell proliferation
Experimental: as §1

OCI-MY1 = experiment: Viable cell number by haemocytometer; type: cell-based; details: Homo sapiens; OCI-MY1, 0.5 μM, after 72 hours; read-out: inhibition of cell proliferation
Experimental: as §1

[4] = test system: HMCL (NCI-H929, OCI-MY1 and U266); experiment: Cell cycle analysis by FACS (PI/RNase); type: cell-based, human
Experimental: (§3) The effect of CYT387 treatment on HMCL cell cycling was measured after 24 and 72 hours. CYT387 (1 or 5 μM) treated and untreated HMCL were harvested, washed in PBS and resuspended in 100 μl PBS. Cells were fixed with 1 ml of cold 70% ethanol while being vortexed. Tubes were stored at −20° C. until analysis. Once all samples were collected tubes were centrifuged at 500×g for 10 minutes, the supernatant was carefully removed and the cells washed in 5 ml PBS. After the final wash cells were resuspended 250-500 μl of PI/RNase staining buffer (BD) and incubated in the dark at room temperature for 15 minutes before being analyzed by FAGS.

NCI-H929 cells = experiment: Cell cycle analysis by FACS (PI/RNase); type: cell-based, human; details: after 24 and 72 hours treatment
Experimental: as §3

p-STAT3 (pY705) [5] = experiment: IL-6 induced STAT3 phosphorylation in HMCL (intracellular FACS, western blot); type: cell-based, human
Experimental: HMCL were treated with CYT387 (1 or 2 μM) for 60 minutes and then stimulated with 10 ng/ml IL-6 for 15 minutes. Protein lysates of CYT387 treated and untreated HMCL were made with RIPA Buffer (50 mM Tris.HCl pH 7.4, 150 mM NaCl, 1 mM PMSF, 1 mM EDTA, 5 μg/ml Aprotinin, 5 μg/ml Leupeptin, 1% Triton X-100, 1% Sodium deoxycholate and 0.1% SDS). Briefly cells were incubated in RIPA buffer on ice for 30-60 minutes before being centrifuged at 16,100×g for 20 minutes at 4° C. and the supernatant collected. Protein concentration was quantified using DC Protein Assay (Bio-Rad) as per manufacturer's instructions. Subsequently, 100 μg of each protein lysate was separated by 10% SDS-PAGE and blotted onto nitrocellulose (Hybond ECL, Amersham) using the Bio-Rad semi-dry transfer system. Membranes were blocked with 5% skim milk powder 0.1% Tween-20/PBS for 60 minutes then incubated with mouse monoclonal antiphospho-STAT3 (pY705, Santa Cruz), mouse monoclonal anti-STAT3 (Santa Cruz) or mouse monoclonal anti-a-tubulin (Sigma-Aldrich) for 1-2 hours at room temperature or overnight at 4° C. The blots were washed three times for 15 minutes in 0.1% Tween-20/PBS, then incubated with secondary HRP lagged antibody (swine anti-rabbit Ig HRP (Dako) or rabbit anti-mouse Ig HRP (Dako)) for 1-2 hours at room temperature before washing as above. […]

NCI-H929 [6] = experiment: Annexin-V/Propidium Iodide FACS apoptosis; type: cell-based; details: Homo sapiens, read-out: reduction in viable cells
Experimental: as §1

[7] = test system: HMCL (NCI-H929, OCI-MY1 and U266); experiment: Viable cell number by haemocytometer with and without IL-6; type: cell-based, human; details: CYT387 0.5-1 μM, 10 ng/ml IL-6, 72 hours
Experimental: as §1

p-ERK1/2 (pT202/pY204) = experiment: IL-6 and IGF-1 induced p-ERK, intracellular FACS, U266; type: cell-based, human; details: 2 μM CYT387 cotreatment, 15 minutes
Experimental: as §2

[8] = test system: CD38+CD45− primary MM cells; experiment: Apoptosis (Apo 2.7) of ex-vivo primary patient MM cells, single agent and combination; type: cell-based, human; details: 24 hours, Calcusyn
From the text: Primary MM samples were obtained from Bone Marrow Aspirates from relapsed and refractory MM patients following written informed consent with approval from the Alfred Hospital Research and Ethics Committee and isolated and treated as previously described. Briefly, bone marrow mononuclear cells (BMMC) were isolated with Ficoll-Paque Plus (Amersham Biosciences), washed in PBS and red blood cells were lysed with NH4Cl solution (8.29 g/L ammonium chloride, 0.037 g/L EDTA, 1 g/L potassium bicarbonate). Cells were then washed again in PBS and quantitated by haemocytometer. BMMC samples were then cultured in complete RPMI-1640 media (as above for HMCL) for 24 hours. Subsequently the BMMC were plated at 5×10^5 cells/ml and were treated with CYT387 (5-50 μM) alone or (dependant on cell numbers) in combination with bortezoniib (5-40 nM) or melphalan (50-200 μM) for 24 and/or 48 hours. Drug-induced MM specific cell apoptosis was then compared to untreated and vehicle controls by staining for CD45 FITC (BD), CD38 PerCP-Cy5.5 (BD) and Apo 2.7 PE (Immunotech) to determine apoptosis in CD45−CD38+ MM cells. Samples were subsequently analyzed by FACS. Primary bone marrow stromal cells (BMSC) were also collected from patient BMMC, cells that adhered to the flask after an initial 24 hour culture were cultured with continued selection for adherent cells over several passages. […]

[9] = test system: HMCL (LP-1, NCI-H929, OPM2, RPMI-8226, ANBL-6, OCI-MY1, U266 and XG-1); experiment: MTS cell proliferation assay on a panel of 8 HMCL; type: cell-based, human
Experimental: as §1

[10] = test system: NCI-H929, OCI-MY1 and U266; experiment: PI FACS dose effect and synergy (Calcusyn) in HMCL; type: cell-based, human; details: 24 and 48 hours
Experimental: For the synergy experiments HMCL were treated with CYT387 in combination with bortezomib or melphalan for 24 and 48 hours before being harvested and resuspended in FACS Buffer (0.5% HI FBS in PBS) supplemented with 62.5 ng/ml PI (Sigma-Aldrich). Cells were immediately analysed by FACS. The proportion of PI positive cells was quantitated by subtracting the background death of untreated cells. Single drug treated cells were compared to combination treated cells and synergism was calculated using Calcusyn software (Biosoft).

Ras/MAPK = details: cited from earlier work; for IL-6 induced activation of Ras/MAPK: refs [20, 22]
Cyclin D2 = details: two HMCL, ref [22]; cited from earlier work
AKT = details: PTEN mutated OPM2 MM cells, ref [30]; cited from earlier work
[11] = CYT387 in combination with bortezomib
[12] = CYT387 in combination with melphalan

SMILES: N#CCNC(=O)c1ccc(-c2ccnc(Nc3ccc(N4CCOCC4)cc3)n2)cc1 [CYT387, N-(cyanomethyl)-4-[2-[[4-(4-morpholinyl)phenyl]amino]-4-pyrimidinyl]-benzamide]
- proportion of apoptotic cells [1]: increased proportion of apoptotic cells was detected in all 3 HMCL
- p-AKT activation after IL-6 and IGF-1 stimulation (p-AKT (pS473)): significantly reduced; also recorded: dramatic reduction
- amount of p-STAT3 in the HMCL (p-STAT3 (pY705) [2]): dramatically reduced the amount of p-STAT3
- inhibition at 1 µM (NCI-H929 [3]): 50%
- inhibition at 1 µM (U266): 44%
- inhibition at 0.5 µM (OCI-MY1): 50%
- cells in the G2/M phase of the cell cycle ([4]; CYT387 1-5 μM, NCI-H929, OCI-MY1 and U266): marked accumulation of cells in the G2/M phase
- polyploid population ([4]; CYT387 treated samples): additional polyploid population was found
- increase in cells in G2/M compared to untreated or vehicle treated control (NCI-H929 cells): more than a two fold increase
- phosphorylation of STAT3 in IL-6 stimulated samples (p-STAT3 (pY705) [5]; CYT387 0.5-2 μM for 1 hour, then IL-6 for 15 minutes, NCI-H929, OCI-MY1 and U266, FACS and western blotting): inhibited the phosphorylation of STAT3
- Total STAT3 protein (p-STAT3 (pY705) [5]; western blot, CYT387 then IL-6 stimulation): unaffected
- cytotoxicity at 5 µM (NCI-H929 [6]; NCI-H929, 5 μM CYT387, 24 hours): 21%
- cytotoxicity at 5 µM (NCI-H929 [6]; NCI-H929, 5 μM CYT387, 72 hours): 52%
- proliferation of HMCL in the presence of IL-6 [7]: able to reduce the proliferation of HMCL in culture even in the presence of IL-6
- IL-6 and IGF-1 induced p-ERK (p-ERK1/2 (pT202/pY204)): significantly inhibited; also recorded: significant reduction
- synergy with bortezomib in primary patient cells [8, 11]: synergy was also observed with bortezomib in some patients/doses
- synergy with melphalan in primary patient cells [8, 12]: synergize with melphalan in ⅔ patients
- most sensitive HMCL to CYT387 treatment (MTS) ([9]; 72 hours): NCI-H929 and XG-1 were the most sensitive
- cell proliferation response by MTS assay ([9]; CYT387 0.1-5 μM, 24, 48 and 72 hours, 8 HMCL): Six of 8 HMCL had a time and dose dependent response
- apoptosis (PI+ cells), dose effect curves ([10]; CYT387 0.5-10 μM): induced apoptosis in 3 HMCL in a time and dose dependent manner
- synergy with bortezomib (combination index, Calcusyn) [10, 11]: displayed synergism; also recorded: synergistic or nearly additive in 18/24 combinations
- synergy with melphalan (combination index, Calcusyn) [10, 12]: displayed synergism; also recorded: Synergy is seen

SMILES: Cc1cc(Nc2nc(N[C@@H](C)c3ncc(F)cn3)ncc2Cl)n[nH]1 [AZD1480]
- IL-6 induced activation of Ras/MAPK (Ras/MAPK): reduce IL-6 induced activation of Ras/MAPK
- Cyclin D2 (Cyclin D2): inhibited Cyclin D2

SMILES: N#C/C(=C/c1ccc(O)c(O)c1)C(=O)NCc1ccccc1 [AG490]
- IL-6 induced Ras/MAPK activation (Ras/MAPK; in the hands of others, ref [31]): no decrease
- IL-6 induced activation of Ras/MAPK (Ras/MAPK): reduce IL-6 induced activation of Ras/MAPK
- AKT activation (AKT): could also abrogate AKT activation

From patent US20140171433A1, “MULTIPLE MYELOMA TREATMENT” (YM Biosciences Australia Pty Ltd, priority 2011, published 2014)
